biological target: T1, GTPase KRas [1-37] (Homo sapiens, UniProt G3V5T7); assay: activated mutant Ras nucleotide binding blockade – biochemical, additional analogs, multiplex flow cytometry, Ki, SAR follow-up (AID 2043)
T1 construct: 1-37
T1 sequence (G3V5T7 whole entry): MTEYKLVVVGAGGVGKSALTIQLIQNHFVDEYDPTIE

SMILES | EC50
O=C1N=c2c(Br)cccc2=C1c1[nH]c2ccccc2c1NO [7-bromanyl-3-[3-(oxidanylamino)-1H-indol-2-yl]indol-2-one] | > 30 µM
O=C1NC(=S)N/C1=C1\C(=O)Nc2ccccc21 [(3Z)-3-(5-oxo-2-sulfanylideneimidazolidin-4-ylidene)-1H-indol-2-one] | > 30 µM
O=C1N=c2c(Cl)cccc2=C1c1[nH]c2ccccc2c1NO [7-chloro-3-[3-(hydroxyamino)-1H-indol-2-yl]-2-indolone] | > 30 µM
O=C1N=c2ccc(Br)cc2=C1c1[nH]c2ccccc2c1NO [5-bromanyl-3-[3-(oxidanylamino)-1H-indol-2-yl]indol-2-one] | > 30 µM
O=C1Nc2c(Br)cccc2C1=C1Nc2ccccc2C1=O | > 30 µM
O=C1Nc2ccc(Br)cc2C1=C1Nc2ccccc2C1=O | > 30 µM
O=C1NC(=O)/C(=C2/C(=O)Nc3ccccc32)N1 | > 30 µM
O=C1Nc2c(Cl)cccc2C1=C1Nc2ccccc2C1=O | > 30 µM
O=C1N=c2ccccc2=C1c1[nH]c2ccccc2c1NO [3-[3-(hydroxyamino)-1H-indol-2-yl]-2-indolone] | > 30 µM
O=C1Nc2ccccc2/C1=C1/Nc2ccccc2C1=O [2-[(3Z)-2-oxo-2,3-dihydro-1H-indol-3-ylidene]-2,3-dihydro-1H-indol-3-one] | > 30 µM
O=C1N=c2c(F)cccc2=C1c1[nH]c2ccccc2c1NO [7-fluoro-3-[3-(hydroxyamino)-1H-indol-2-yl]-2-indolone] | > 30 µM
O=C1Nc2c(F)cccc2C1=C1Nc2ccccc2C1=O | > 30 µM

— BindingDB's records for doi:10.7270/Q23N21VG (Nmmlsc, 2009)
